Assay results published in patent publication US8986676B2, “MNTF differentiation and growth of stem cells” (Genervon Biopharmaceuticals LLC, priority 2005, dated 2015).
“Also recorded” adds a separate entry of the source. Ends that are not written are not given here.

Legend:
mouse ES cells [1] = test: Differentiation of ES cells in the presence of IR or IGF1-R inhibitor (GFP fluorescence of day 5 embryoid bodies); type: cell-based; conditions: for effect of inhibitor on MNTF induced differentiation (GFP fluorescence): HNMPA(AM)3 15 μM or PPP 1 μM, RA/MNTF33 or RA/MNTF10, FIG. 6
[2] = test system: anterior horn motor neurons; conditions: rat lumbar spinal cord explants; cited from earlier work
surviving motor neurons = conditions: axotomized rat peripheral nerves, versus untreated controls; cited from earlier work
spinal cord hemi-section = conditions: rats, MNTF1-containing gel sections near nerve graft junctions; cited from earlier work
wobbler mice = conditions: MNTF1-containing gel sections implanted at C7-T3 region; cited from earlier work
IR/IGF1R [pYpY1162/1163] = test: Autophosphorylation of Insulin/IGF receptor(s), western blot of embryoid bodies; type: cell-based, mouse; conditions: for autophosphorylation of IR/IGF-R (pTyr 1162/1163): RA (1 μM) + MNTF 33mer (10 μg/ml), FIG. 3
Experimental: Embryoid bodies (EBs) were exposed to RA (1 μM)+MNTF 33mer (10 μg/ml) or RA (1 μM)+MNTF 33mer (10 μg/ml)+/−HNMPA-(AM)3 (50 nM). Cells were harvested at 0, 15 min, 30 min, 1 h, 2 h and 4 h time points.
The cells were harvested as described previously [Barber, A. J. et al., (2001) J. Biol. Chem. 276, 32814-32821]. Protein concentrations were measured with the Pierce BCA reagent, and all samples were adjusted for equal protein before SDS-polyacrylamide gel electrophoresis.
Cell lysates were immunoblotted with polyclonal antibodies against phosphotyrosines 1162-1163 of IR/IGFR1 following the manufacturer's directions or standard techniques. Protein bands were detected by enhanced chemical fluorescence. Densitometric analysis of enhanced chemical fluorescence immunoblots was performed with ImageQuant (Molecular Dynamics, Sunnyvale, Calif.).

mouse ES cells [3] = test: MNTF induced differentiation in the presence of Shh inhibitor (GFP fluorescence of embryoid bodies); type: cell-based; conditions: inhibitor 5 μM, day 5; for effect of inhibitor on MNTF induced differentiation of ES cells: RA + MNTF 33mer at 10 μg/ul; for effect of inhibitor on the GFP fluorescence effect of Shh-Agonist: RA + Shh agonist
Experimental: The ES cells were differentiated as mentioned above and at day 0 they were treated with RA+Shh-Agonist; RA+Shh Agonist+Cyclopamine-KAAD (5 μM); RA+MNTF (33mer at 10 μg/ul); and RA+Cyclopamine-KAAD (5 μM)+MNTF (33mer at 10 μg/ul). The inhibitor was pretreated for an hour before the addition of the other components.
At day 5 of differentiation the embryoid bodies were checked for GFP fluoresence indicating the differentiation of the ES cells into a motor neuron phenotype.
Receptor kinase studies were used to measure the affinity of MNTF for the Insulin Receptor (IR). […] We then tested whether signals through either of these pathways are possible in generating motor neurons. […] Thus, MNTF is still capable of generating post-mitotic mature motor neurons.
FIG. 5 illustrates a comparison of the expression of GFP fluorescence under the control of the motor neuron specific HB9 promoter at day 5 of differentiation in response to control (A), RA (3); RA/Shh (C); cyclopamine-KAAD, RA/Shh (D); RA and MNTF 33mer (E); Cyclopamine-KAAD, RA and MNTF 33mer (F).

[4] = test system: ES cells derived from an HB9-GFP-transgenic mouse; test: Differentiation of ES cells into motor neurons (eGFP under HB9 promoter in embryoid bodies); type: cell-based; conditions: for expression of eGFP under the control of the HB9 promoter (green fluorescence of EBs) compared with RA and Shh agonist: EBs treated with RA (1 μM) and peptide; for differentiation of ES cells into motor neurons: in the presence of RA; for concentration at which elevated fluorescence was detectable (as low as) / concentration at which fluorescence appeared to be optimal: with RA; for concentration at which fluorescence appeared to be optimal: in this experiment
Experimental: ES cells were derived from an HB9-GFP-transgenic mouse and fluoresce green upon adoption of a motoneuron phenotype [Wichterle, H. et al. ([…]) Cell 110, 385-397, incorporated herein by reference]. The mouse ES cells were maintained in a proliferative and undifferentiated state in the presence of murine LIF (Chemicon). The ES cells were cultured on a feeder layer of primary mouse embryonic fibroblasts that were mitomycin treated.
Mouse ES cells were separated from the feeder layer of fibroblasts. This was done by trypsinizing and plating the cell mixture on cell culture flasks coated with 0.1% gelatin. The fibroblasts attached specifically on the gelatin leaving a pure population of floating ES cells. The floating ES cells were collected and resuspended in differentiating medium. This stage was called “d−1”. The ES cells formed embryoid bodies (EBs) and 24 hours later (“d0”) were exposed to RA (1 μM)+MNTF or RA (1 μM)+Shh agonist (1 μM). MNTF peptides (all six forms) were tested at a final concentration range of 0.1 μg/ml-150 μg/ml.
The differentiation assay was carried for six days from “d−1” stage.

[5] = test system: ES cell-derived motor neurons; test: Survival of ES cell-derived motor neurons in dissociated cultures; type: cell-based, mouse; conditions: for maintaining dissociated cultures: dissociated ES-derived motor neuron cultures; for enhancement of survival of stem cell derived motor neurons: percentage survivability on day ten, FIG. 4
Experimental: Mouse embryonic stem (ES) cells were differentiated in the presence of RA and Hg-agonist (Curis, Inc.). On day four, the differentiated embryoid bodies were partially dissociated with 0.05% trypsin or Collagenase and Dispase (1 mg/ml in PBS) and plated on coverslips coated with PLL-Laminin and matrigel.
The dissociated cultures were then treated with GDNF (10 ng/ml), MNTF (all seven forms) at different doses (0.1 μg/ml, 1 μg/ml, 10 μg/ml and 50 μg/ml), and dbcAMP (1 μM), NT3 (10 μg/ml) at day five.
Neurons and their axons were identified by using the fluorescence produced by GFP expressed from the HB9 promoter. Neurite outgrowth can be quantified as described previously [Harper, J. M. et al. (2004) PNAS 101, 7123-7128, incorporated herein by reference] at day six, eight and ten. Percentage survivability was calculated on day ten by counting the total number of cells with existing axons.

[6] = test system: motor neuron derived cell lines; conditions: compared with MNTF1-F6 33-mer; cited from earlier work
motor neurons = conditions: in vivo, compared with MNTF1-F6 33-mer; cited from earlier work

COc1cc([C@@H]2c3cc4c(cc3[C@H](O)[C@H]3COC(=O)[C@@H]23)OCO4)cc(OC)c1OC [picrodophyllin]
effect of inhibitor on MNTF induced differentiation (GFP fluorescence) (mouse ES cells [1]): does not effectively block the activity of MNTF induced differentiation

MNTF1: naturally occurring and recombinant motoneuronotrophic factor 1 polypeptides; in b137 the word stands for the synthetic 33-mer (LGTFWGDTLNCWMLSAFSRYARCLAEGHDGPTQ)
survival in vitro of anterior horn motor neurons [2]: selectively enhance the survival | percentage of surviving motor neurons (surviving motor neurons): markedly higher percentage of surviving motor neurons than untreated controls | surviving motor neurons and functional recovery (spinal cord hemi-section): greater numbers of surviving motor neurons, improved recovery of motor and sensory function | progression of symptoms (wobbler mice): delayed the progression of symptoms in wobbler mice

CC(=O)OCOC(c1ccc2ccccc2c1)P(=O)(OCOC(C)=O)OCOC(C)=O (stereo not drawn) [HNMPA-(AM)3, Hydroxy-2-naphthalenylmethylphosphonic acid trisacetoxymethyl ester]
effect of IR inhibitor on autophosphorylation of IR/IGF-R in MNTF 33mer treated cells (IR/IGF1R [pYpY1162/1163]; HNMPA-(AM)3 50 nM with RA + MNTF 33mer (10 μg/ml)): reduced autophosphorylation within 15 min | effect of inhibitor on MNTF induced differentiation (GFP fluorescence) (mouse ES cells [1]): blocks the effect of MNTF on mouse ES cells | effect of inhibitor on Shh induced differentiation (GFP fluorescence) (mouse ES cells [1]; HNMPA(AM)3 15 μM, FIG. 6): did not block the activity of Shh induced differentiation

3-keto-N-(aminoethyl-aminocaproyl-dihydrocinnamoyl)cyclopamine [Cyclopamine-KAAD]
effect of inhibitor on MNTF induced differentiation of ES cells (mouse ES cells [3]): did not block MNTF induced differentiation of ES cells | effect of inhibitor on MNTF induced differentiation of ES cells (mouse ES cells [3]; listed as cyclopamine-KAAD): did not block the activity of MNTF induced differentiation | effect of inhibitor on the GFP fluorescence effect of Shh-Agonist (mouse ES cells [3]): blocked the GFP fluoresence effect of Shh-Agonist | effect of inhibitor on the GFP fluorescence effect of Shh-Agonist (mouse ES cells [3]; listed as cyclopamine-KAAD): blocks the effect of Shh on mouse ES cells

33mer: 33 amino acid MNTF1-F6 sequence (SEQ ID NO:1), synthesized by solid phase synthesis (LGTFWGDTLNCWMLSAFSRYARCLAEGHDGPTQ)
expression of eGFP under the control of the HB9 promoter (green fluorescence of EBs) compared with RA and Shh agonist ([4]; FIG. 2): to the same extent or greater than EBs treated with RA and Shh agonist | differentiation of ES cells into motor neurons [4]: effectively substitute for Sonic Hedgehog | differentiation of ES cells into motor neurons ([4]; listed as 33-mer): induced differentiation of ES cells into motor neurons; also recorded: capable of inducing differentiation of ES cells into differentiated motor neurons | concentration at which elevated fluorescence was detectable (as low as) ([4]; FIG. 2): 0.1 µg/mL | concentration at which fluorescence appeared to be optimal [4]: about 10 μg/ml | autophosphorylation of IR/IGF-R (pTyr 1162/1163) (IR/IGF1R [pYpY1162/1163]): autophosphorylation of IR/IGF-R | autophosphorylation of IR/IGF-R (pTyr 1162/1163) (IR/IGF1R [pYpY1162/1163]; listed as MNTF1 33-mer): associated with autophosphorylation of the insulin receptor (IR) and/or insulin-like growth factor receptor (IGF-R) | maintaining dissociated cultures [5]: effective at maintaining dissociated cultures up to 10 days

MLSAFSRYAR (Synthetic MNTF peptide analog) [10mer]
expression of eGFP under the control of the HB9 promoter (green fluorescence of EBs) compared with RA and Shh agonist ([4]; FIG. 2): to the same extent or greater than EBs treated with RA and Shh agonist | differentiation of ES cells into motor neurons [4]: effectively substitute for Sonic Hedgehog | differentiation of ES cells into motor neurons ([4]; listed as MNTF 10-mer): capable of inducing differentiation of ES cells into differentiated motor neurons | concentration at which differentiation is stimulated (as low as) ([4]; in vitro, FIG. 2): 0.01 µg/mL | effectiveness at stimulating differentiation of embryonic stem cells into motor neurons compared with MNTF 33mer ([4]; in vitro, FIG. 2): at least as effective the full-length MNTF 33mer | concentration at which elevated fluorescence was detectable (as low as) ([4]; FIG. 2): 0.1 µg/mL | concentration at which fluorescence appeared to be optimal [4]: about 10 μg/ml | maintaining dissociated cultures [5]: effective at maintaining dissociated cultures up to 10 days | enhancement of survival of stem cell derived motor neurons [5]: nearly as effective as the MNTF 33mer

WMLSAFS [7mer]
enhancement of survival of stem cell derived motor neurons [5]: sufficient to enhance survival of stem cell derived motor neurons | proliferation of motor neuron derived cell lines [6]: sufficient to stimulate the proliferation of motor neuron derived cell lines

FSRYAR [6mer]
enhancement of survival of stem cell derived motor neurons [5]: sufficient to enhance survival of stem cell derived motor neurons | proliferation of motor neuron derived cell lines [6]: sufficient to stimulate the proliferation of motor neuron derived cell lines | selective reinnervation of muscle targets by motor neurons (motor neurons): sufficient to direct selective reinnervation of muscle targets

MLSAFSRYARCLAEGHDGPTQ (CWMLSAFSRYARC; Synthetic MNTF peptide sequence) [21mer]
enhancement of survival of stem cell derived motor neurons [5]: sufficient to enhance survival of stem cell derived motor neurons

FSRYARCLAEG (Synthetic MNTF peptide analog) [11mer]
enhancement of survival of stem cell derived motor neurons [5]: sufficient to enhance survival of stem cell derived motor neurons
